Here are results for seven compounds from US3947411A, “Novel 1-aryl-2-arylalkyl-3-or-4-[4'-(substituted-alkyl)piperazino-1']butanols- 2-or-butenes-1, and methods of manufacture thereof” (Warner-Lambert Company, priority 1972, dated 1976).

SMILES strings stand for the structures. Converted amounts (≈) assume the structure as drawn.

One data set deals with Staphylococcus aureus. Description: Agar well inhibition zone test against bacteria, Staphylococcus aureus (Table III). The note with it: quantity per well giving inhibition zone (500, 50, 5 μg tested); nutrient agar, 37°, 24 hours.
The next data set has as its system Staph. aureus. Description: Minimum inhibitory concentration for bacteria, tube dilution, Staph. aureus (Table V). The settings on record: Staphylococcus aureus, 48 h, read-out: Minimum Inhibitory Concentration, Staph. aureus.
Data set [1] deals with A. niger. Description: Minimum inhibitory concentration for fungi, tube dilution, A. niger (Table IV). The settings on record: Aspergillus niger, 48 h, read-out: Minimum Inhibitory Concentration, A. niger.
Description: (§1) A tube dilution series of the respective compound in Sabouraud nutrient broth, whose individual tubes contained concentrations of 1024 μg, 512 μg, 256 μg, 128 μg, 64 μg, 32 μg, 16 μg, 8 μg, 4 μg, 2 μg, 1.1 μg and 0.5 μg/ml, was prepared and inoculated with a photometrically standardized suspension of the test organisms or the spores thereof.
The test system of a further data set is Aspergillus niger. As to the kind of experiment: Agar well inhibition zone test against fungi, Aspergillus niger (Table II). The settings on record: quantity per well giving inhibition zone (500, 50, 5 μg tested); Sabouraud agar, 28°, 48 hours.
Another data set concerns Candida albicans. Description: Agar well inhibition zone test against fungi, Candida albicans (Table II). The note with it: quantity per well giving inhibition zone (500, 50, 5 μg tested); Sabouraud agar, 28°, 48 hours.
For data set [2], the system named is C. albicans. As to the kind of experiment: Minimum inhibitory concentration for fungi, tube dilution, C. albicans (Table IV). The note with it: Candida albicans, 48 h, read-out: Minimum Inhibitory Concentration, C. albicans.
Description: as §1
For data set [3], the system named is C. albicans. Description: Minimum inhibitory concentration for fungi in presence of serum, C. albicans (Table VI). It is filed as cell-based. The settings on record: Candida albicans; Sabouraud nutrient broth + 10% bovine serum, 28°C, 48 hours.
A further data set deals with Escherichia coli. Description: Agar well inhibition zone test against bacteria, Escherichia coli (Table III). The settings on record: quantity per well giving inhibition zone (500, 50, 5 μg tested); nutrient agar, 37°, 24 hours.
Another data set is described as follows: Solubility in water. It is filed as physicochemical. The settings on record: hydrochlorides or oxalates, read-out: solubilities (in water). On the procedure: The following list contains examples of those compounds which are made according to the methods disclosed. (The individual compounds are identified by elementary analyses and infrared spectra, by ultra-violet or nuclear resonance spectra, if necessary.) Individual melting points and solubilities (in water) are also given as is the method by which each compound is prepared.
The melting points and solubilities are given for the Hydrochlorides I - XVI; XVIII - XXVII; XXIX - XXXV; XXXVII - XLII; XLIV - LXII; LXIV - LXVII, and the Oxalates XVII; […]; XXXVI; LXIII.

The subject of data set [4] is A. niger. Description: Minimum inhibitory concentration for fungi in presence of serum, A. niger (Table VI). The class given is cell-based. The settings on record: Aspergillus niger; Sabouraud nutrient broth + 10% bovine serum, 28°C, 48 hours.
The subject of data set [5] is Mycobacterium tuberculosis II 37 RV (typus humanus). As to the kind of experiment: Efficacy against Mycobacteria, Tb-broth dilution series (Table I). It is filed as cell-based. The settings on record: 504 h, Dubos Tb-broth + 10% bovine serum, 21 days, read-out: Minimum Inhibitory Concentration.

Description for Aspergillus niger: The efficacy of the compounds against fungi was tested as follows:
The test organisms, in this case the blastomycete Candida albicans and the mold Aspergillus niger, were inoculated onto Sabouraud agar plates by pouring a photometrically adjusted standard suspension of organisms on the plate. After inoculation, wells with a diameter of 5.0 mm were punched in the agar, and filled with 50 ul of the compound solution mentioned before. The quantity of compound applied thus amounted to 500 μg, 50 μg and 5 μg. After incubation at 28° for 48 hours, the quantity of compound was determined at which an inhibition of the organism's growth, in form of an inhibition zone around the corresponding well, was present.
Description for Staph. aureus: A tube dilution series of the respective compound in nutrient broth whose individual tubes contained concentrations of 1024 μg, 512 μg, 256 μg, 128 μg, 64 μg, 32 μg, 1 μg, 8 μg, 4 μg, 2 μg, 1.1 μg and 0.5 μg/ml was prepared and inoculated with a photometrically standardized suspension of the test organisms.
Description for Staphylococcus aureus: The efficacy of the compounds against bacteria was tested as follows:
The test organisms, in this case Staphylococcus aureus and Escherichia coli, were inoculated on nutrient agar as described in Example 12, wells were punched, and the solutions of the compounds were transferred to fill the wells. The quantity of compound in the wells amounted again to 500 μg, 50 μg and 5 μg.
After incubation a 37° for 24 hours the quantity of compound was determined at which an inhibition of the organism's growth, in the form of an inhibition zone around the corresponding well, occurred.

Turning to `CC(N1CCN(CCCCCCN2CCCCC2)CC1)C(O)(Cc1ccccc1)Cc1ccccc1` (stereo not shown) [XX, 1-phenyl-2-benzyl-3-[4'-(w-piperidino-n-hexyl)-piperazino-1']-butanol-2], the “Inhibition Area at μg, Staph. aureus” value in the data set on Staphylococcus aureus was 50 µg. The MIC with Staph. aureus was 128 µg/mL (≈ 260 µM); with A. niger [1] it was 4 µg/mL (≈ 8.13 µM); with C. albicans [2] it was 64 µg/mL (≈ 130 µM); in the data set with C. albicans [3] it was 128 µg/mL; in the data set on A. niger [4] it was 8 µg/mL. Moreover, the “Inhibition Area at μg, Asp. niger” value in the data set with Aspergillus niger was 5 µg. Moreover, the “Inhibition Area at μg, Cand. albicans” value with Candida albicans worked out at 50 µg. The “Inhibition Area at μg, E. coli” value in the data set with Escherichia coli came out at 500 µg. The solubility in the data set “Solubility in water” is 100 mg/mL (≈ 203000 µM).
In the case of `CC(C(=Cc1ccccc1)Cc1ccccc1)N1CC[N+]2(CCCCCC2)CC1` (stereo not shown) [LXVII, hexahydro-azepinium-1-spiro-1'-piperazinium-4'-(3-benzyl-4-phenyl-but-3-en-2-yl)-chloride], the “Inhibition Area at μg, Staph. aureus” value with Staphylococcus aureus came to 50 µg. In addition, the MIC in the data set with Staph. aureus was found to be 8 µg/mL; in the data set with A. niger [1], 128 µg/mL; with C. albicans [2] it was 128 µg/mL; in the data set on C. albicans [3], 64 µg/mL; in the data set on A. niger [4], 128 µg/mL. Moreover, the “Inhibition Area at μg, Asp. niger” value in the data set with Aspergillus niger came out at 50 µg. For the same compound, in the data set on Candida albicans, the “Inhibition Area at μg, Cand. albicans” value came out at 50 µg. Also, the “Inhibition Area at μg, E. coli” value in the data set with Escherichia coli was 500 µg. The solubility in the data set “Solubility in water” is 10 mg/mL.
For the compound `CC(N1CCN(CCN2CCN(CCc3ccccc3)CC2)CC1)C(O)(Cc1ccccc1)Cc1ccccc1` (stereo not drawn) [XIV, 1-phenyl-2-benzyl-3-{4'-[β-(4"-β-phenethyl-piperazino-1")-ethyl]-piperazino-1'}-butanol-2], the “Inhibition Area at μg, Staph. aureus” value in the data set with Staphylococcus aureus amounted to 50 µg. The MIC with Staph. aureus was 32 µg/mL (≈ 59.2 µM); with A. niger [1] it was 16 µg/mL (≈ 29.6 µM); with C. albicans [2] it was 32 µg/mL (≈ 59.2 µM); with C. albicans [3] it was 128 µg/mL; in the data set on A. niger [4], 64 µg/mL. In addition, the “Inhibition Area at μg, Asp. niger” value with Aspergillus niger was 50 µg. Besides, the “Inhibition Area at μg, Cand. albicans” value with Candida albicans was found to be 50 µg. Besides, the “Inhibition Area at μg, E. coli” value in the data set on Escherichia coli came out at 500 µg. For the same compound, the solubility in “Solubility in water” came out at 100 mg/mL (≈ 185000 µM).
Take `CC(N1CCN(Cc2cccnc2)CC1)C(O)(Cc1ccccc1)Cc1ccccc1` (stereo not shown) [XXIII, 1-phenyl-2-benzyl-3-[4'-(3"-pyridylmethyl)-piperazino-1']-butanol-2]: the “Inhibition Area at μg, Staph. aureus” value in the data set with Staphylococcus aureus was 500 µg. Also, the “Inhibition Area at μg, Asp. niger” value in the data set on Aspergillus niger is > 500 µg. Besides, the “Inhibition Area at μg, Cand. albicans” value with Candida albicans worked out at 500 µg. Moreover, the MIC in data set [5] was 1000 µg/mL. In addition, the “Inhibition Area at μg, E. coli” value in the data set on Escherichia coli was > 500 µg. For the same compound, the solubility in the data set “Solubility in water” came out at 50 mg/mL (≈ 120000 µM).
`CC1CN(CCN2CCN(C(C)C(=Cc3ccccc3)Cc3ccccc3)CC2)CCO1` (stereo not drawn) [XXXII, 1-phenyl-2-benzyl-3-{4'-[β-(2-methylmorpholino)-ethyl]-piperazino-1'}-butene-1]: the “Inhibition Area at μg, Staph. aureus” value with Staphylococcus aureus was 50 µg. Moreover, the MIC turned out to be 128 µg/mL (≈ 295 µM) in the data set with Staph. aureus, 128 µg/mL (≈ 295 µM) in the data set with A. niger [1] and 50 µg/mL in data set [5]. Further, the “Inhibition Area at μg, Asp. niger” value with Aspergillus niger is 50 µg. The “Inhibition Area at μg, Cand. albicans” value in the data set with Candida albicans is 500 µg. Also, the “Inhibition Area at μg, E. coli” value with Escherichia coli was > 500 µg. Further, the solubility in “Solubility in water” was 100 mg/mL (≈ 231000 µM).
Regarding `CC1CN(CCN2CCN(C(C)C(O)(Cc3ccccc3)Cc3ccccc3)CC2)CCO1` (stereo not drawn) [VI, 1-phenyl-2-benzyl-3-{4'-[β-(2"-methyl-morpholino)-ethyl]-piperazino-1'}-butanol-2], in the data set on Staphylococcus aureus, the “Inhibition Area at μg, Staph. aureus” value was > 500 µg. Also, the “Inhibition Area at μg, Asp. niger” value in the data set on Aspergillus niger was determined as 500 µg. In the data set with Candida albicans, the “Inhibition Area at μg, Cand. albicans” value stood at 500 µg. For the same compound, the MIC in data set [5] worked out at 100 µg/mL. In addition, in the data set with Escherichia coli, the “Inhibition Area at μg, E. coli” value was > 500 µg. Moreover, in the data set “Solubility in water”, the solubility came to 100 mg/mL (≈ 221000 µM).
Take `CC(N1CCN(CCCl)CC1)C(O)(Cc1ccccc1)Cc1ccccc1` (stereo not drawn) [XLV, 1-phenyl-2-benzyl-3-[4'-(β-chloro-ethyl)-piperazino-1']-butanol-2]: in the data set on Staphylococcus aureus, the “Inhibition Area at μg, Staph. aureus” value came out at 50 µg. The MIC in the data set on Staph. aureus is > 1020 µg/mL; in the data set on C. albicans [2], > 1020 µg/mL; in data set [5], 100 µg/mL. Besides, the “Inhibition Area at μg, Asp. niger” value with Aspergillus niger was found to be 500 µg. The “Inhibition Area at μg, Cand. albicans” value in the data set on Candida albicans amounted to 50 µg. In the data set on Escherichia coli, the “Inhibition Area at μg, E. coli” value is 500 µg. The solubility in “Solubility in water” was found to be 25 mg/mL (≈ 64600 µM).
